Blank lines part the entries; values can stand above or below the compound they belong to.
Assays:
[1] = Pharmacokinetic profile in mice after oral gavage; assay type: in vivo, mouse; conditions: mouse; fasted male Hilltop mice, 10 mg/kg oral gavage, plasma; read-out: Cmax
Method in brief: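 Plasma exposure (Cmax, AUC) by non-compartmental analysis of LC-MS/MS data, orbital blood taken at 0, 0.25, 0.5, 1, 2 and 4 h, each value averaging three mice. Dosing: 10 mg/kg oral gavage to overnight-fasted male Hilltop mice (8 weeks), vehicle PEG400/CMC/Tween-80.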

[2] = test system: Mouse STC-1 cells; test: STC-1 GLP-1 assay (GLP-1 secretion); assay type: cell-based; conditions: Mouse STC-1 cells, GLP-1 secretion, 2 h; read-out: Mouse STC-1 HTRF GLP-1 Activity (EC50)
Method in brief: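 Secreted active GLP-1 was measured by HTRF after overnight room-temperature incubation of supernatant with the conjugates. Supernatants came from a 2 h, 37° C. compound exposure (12-point half-log series) in HBSS with DPP-IV and protease inhibitors and 0.1% fatty acid free BSA. STC-1 cells had been seeded two days earlier in stripped-serum DMEM; EC50 reported.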

Cmax [1]: 2.6 ng/mL
EC50 [2]: < 0.1 µM
SMILES: N#Cc1ccc(CCNC(=O)[C@@H]2CCCN2c2cc(N3CCC(CCCNC(=O)NCCS(N)(=O)=O)CC3)nc(C(F)(F)F)n2)cc1 [Compound 120, (S)-N-(4-cyanophenethyl)-1-(6-(4-(3-(3-(2-sulfamoylethyl)ureido)propyl)piperidin-1-yl)-2-(trifluoromethyl)pyrimidin-4-yl)pyrrolidine-2-carboxamide]

Cmax [1]: 0.5 ng/mL
EC50 [2]: < 0.1 µM
SMILES: N#Cc1ccc(CCNC(=O)[C@@H]2CCN2c2cc(N3CCC(CCNC(=O)NCCOCCNC(=O)NCCC(=O)O)CC3)nc(C(F)(F)F)n2)cc1 [Compound 360, (S)-1-(1-(6-(2-((4-cyanophenethyl)carbamoyl)azetidin-1-yl)-2-(trifluoromethyl)pyrimidin-4-yl)piperidin-4-yl)-4,12-dioxo-8-oxa-3,5,11,13-tetraazahexadecan-16-oic acid]

Cmax [1]: 670 ng/mL
EC50 [2]: 0.1 to 0.999 µM
SMILES: N#Cc1ccc(CCNC(=O)[C@@H]2CCCN2c2cc(N3CCC(CCCC(=O)NCCNC(=N)N)CC3)nc(C(F)(F)F)n2)cc1 [Compound 128, (S)-N-(4-cyanophenethyl)-1-(6-(4-(4-((2-guanidinoethyl)amino)-4-oxobutyl)piperidin-1-yl)-2-(trifluoromethyl)pyrimidin-4-yl)pyrrolidine-2-carboxamide]

Cmax [1]: 48 ng/mL
EC50 [2]: < 0.1 µM
SMILES: O=C(O)CCCC1CCN(c2cc(N3CCC[C@H]3C(=O)NCCc3ccc(C(F)(F)F)cc3)nc(C(F)(F)F)n2)CC1 [Compound 9]

Cmax [1]: 970 ng/mL
EC50 [2]: 0.1 to 0.999 µM
SMILES: COCC1CCN(c2cc(N3CCC[C@H]3C(=O)NCCc3ccc(C#N)cc3)nc(C(F)(F)F)n2)CC1 [Compound 24]

Cmax [1]: 7.6 ng/mL
EC50 [2]: < 0.1 µM
SMILES: N#Cc1ccc(CCNC(=O)[C@@H]2CCN2c2cc(N3CCC(CCCC(=O)NCS(=O)(=O)O)CC3)nc(C(F)(F)F)n2)cc1 [Compound 250, (S)-(4-(1-(6-(2-((4-cyanophenethyl)carbamoyl)azetidin-1-yl)-2-(trifluoromethyl)pyrimidin-4-yl)piperidin-4-yl)butanamido)methanesulfonic acid]

Cmax [1]: 1.5 ng/mL
EC50 [2]: 0.1 to 0.999 µM
SMILES: N#Cc1ccc(CCNC(=O)[C@@H]2CCCN2c2cc(N3CCC(CCNc4c(NCCS(=O)(=O)O)c(=O)c4=O)CC3)nc(C(F)(F)F)n2)cc1 [Compound 367, (S)-2-((2-((2-(1-(6-(2-((4-cyanophenethyl)carbamoyl)pyrrolidin-1-yl)-2-(trifluoromethyl)pyrimidin-4-yl)piperidin-4-yl)ethyl)amino)-3,4-dioxocyclobut-1-en-1-yl)amino)ethanesulfonic acid]

Cmax [1]: 48 ng/mL
EC50 [2]: < 0.1 µM
SMILES: O=C(CCC1CCN(c2cc(N3CC[C@H]3C(=O)NCCc3ccc(C(F)(F)F)cc3)nc(C(F)(F)F)n2)CC1)NCS(=O)(=O)O [Compound 253, (S)-(3-(1-(2-(trifluoromethyl)-6-(2-((4-(trifluoromethyl)phenethyl)-carbamoyl)azetidin-1-yl)pyrimidin-4-yl)piperidin-4-yl)propanamido)-methanesulfonic acid]

Cmax [1]: 48 ng/mL
EC50 [2]: 0.1 to 0.999 µM
SMILES: N#Cc1ccc(CCNC(=O)[C@@H]2CCN2c2cc(N3CCC(CCCC(=O)NC[C@@H](O)CO)CC3)nc(C(F)(F)F)n2)cc1 [Compound 261, (S)-N-(4-cyanophenethyl)-1-(6-(4-(4-(((R)-2,3-dihydroxypropyl)amino)-4-oxobutyl)piperidin-1-yl)-2-(trifluoromethyl)pyrimidin-4-yl)azetidine-2-carboxamide]

Cmax [1]: 8.9 ng/mL
EC50 [2]: 0.1 to 0.999 µM
SMILES: N#Cc1ccc(CCNC(=O)[C@@H]2CCCN2c2cc(N3CCC(CCCC(=O)NCCC(=O)O)CC3)nc(C(F)(F)F)n2)cc1 [Compound 104, (S)-3-(4-(1-(6-(2-((4-cyanophenethyl)carbamoyl)pyrrolidin-1-yl)-2-(trifluoromethyl)pyrimidin-4-yl)-piperidin-4-yl)butanamido)-propanoic acid]

Cmax [1]: 0.13 ng/mL
EC50 [2]: 0.1 to 0.999 µM
SMILES: N#Cc1ccc(CCNC(=O)[C@@H]2CCCN2c2cc(N3CCC(CCNC(=O)NCCC(=O)NCCS(=O)(=O)O)CC3)nc(C(F)(F)F)n2)cc1 [Compound 113, (S)-2-(3-(3-(2-(1-(6-(2-((4-cyanophenethyl)carbamoyl)pyrrolidin-1-yl)-2-(trifluromethyl)pyrimidin-4-yl)piperidin-4-yl)ethyl)ureido)-propanamido)-ethanesulfonic acid]

Cmax [1]: 3.3 ng/mL
EC50 [2]: < 0.1 µM
SMILES: N#Cc1ccc(CCNC(=O)[C@@H]2CCCN2c2cc(N3CCC(CCCC(=O)NCCS(=O)(=O)O)CC3)nc(C(F)(F)F)n2)cc1 [Compound 61, (S)-2-(4-(1-(6-(2-((4-cyanophenethyl)carbamoyl)pyrrolidin-1-yl)-2-(trifluoromethyl)pyrimidin-4-yl)-piperidin-4-yl)butanamido)ethanesulfonic acid]

The next lines start with the compound.

SMILES: N[C@@H](CS(=O)(=O)O)C(=O)NCCC1CCN(c2cc(N3CC[C@H]3C(=O)NCCc3ccc(C(F)(F)F)cc3)nc(C(F)(F)F)n2)CC1 [Compound 278, (R)-2-amino-3-oxo-3-((2-(1-(2-(trifluoromethyl)-6-((S)-2-((4-(trifluoromethyl)-phenethyl)carbamoyl)azetidin-1-yl)pyrimidin-4-yl)piperidin-4-yl)ethyl)amino)-propane-1-sulfonic acid]
Cmax [1]: 3.7 ng/mL
EC50 [2]: < 0.1 µM

SMILES: COc1cc(C(F)(F)F)ccc1CCNC(=O)[C@@H]1CCCN1c1cc(N2CCC(CCCC(=O)NCCS(=O)(=O)O)CC2)nc(C(F)(F)F)n1 [Compound 57, (S)-2-(4-(1-(6-(2-((2-methoxy-4-(trifluoromethyl)phenethyl)carbamoyl)-pyrrolidin-1-yl)-2-(trifluoromethyl)-pyrimidin-4-yl)piperidin-4-yl)butanamido)ethanesulfonic acid]
Cmax [1]: 13 ng/mL
EC50 [2]: < 0.1 µM

SMILES: O=C(O)CCC1CCN(c2cc(N3CC[C@H]3C(=O)NCCc3ccc(C(F)(F)F)cc3)nc(C(F)(F)F)n2)CC1 [Compound 232, (S)-3-(1-(2-(trifluoromethyl)-6-(2-((4-(trifluoromethyl)phenethyl)carbamoyl)azetidin-1-yl)pyrimidin-4-yl)piperidin-4-yl)propanoic acid]
Cmax [1]: 64 ng/mL
EC50 [2]: < 0.1 µM

SMILES: N#Cc1ccc(CCNC(=O)[C@@H]2CCN2c2cc(N3CCC(CCNC(=O)NCCS(N)(=O)=O)CC3)nc(C(F)(F)F)n2)cc1 [Compound 269, (S)—N-(4-cyanophenethyl)-1-(6-(4-(2-(3-(2-sulfamoylethyl)ureido)ethyl)piperidin-1-yl)-2-(trifluoromethyl)pyrimidin-4-yl)azetidine-2-carboxamide]
Cmax [1]: 3.2 ng/mL
EC50 [2]: < 0.1 µM

SMILES: N#Cc1ccc(CCNC(=O)[C@@H]2CCN2c2cc(N3CCC(CCO)CC3)nc(C(F)(F)F)n2)cc1 [Compound 223, (S)-N-(4-cyanophenethyl)-1-(6-(4-(2-hydroxyethyl)piperidin-1-yl)-2-(trifluoromethyl)pyrimidin-4-yl)azetidine-2-carboxamide]
Cmax [1]: 44 ng/mL
EC50 [2]: < 0.1 µM

SMILES: N#Cc1ccc(CCNC(=O)[C@@H]2CCCN2c2cc(N3CCC(CCNC(=N)N)CC3)nc(C(F)(F)F)n2)cc1 [Compound 126, (S)—N-(4-cyanophenethyl)-1-(6-(4-(2-guanidinoethyl)piperidin-1-yl)-2-(trifluoromethyl)pyrimidin-4-yl)pyrrolidine-2-carboxamide]
Cmax [1]: 2 ng/mL
EC50 [2]: 0.1 to 0.999 µM

SMILES: N#Cc1ccc(CCNC(=O)[C@@H]2CCCN2c2cc(N3CCC(CCC(=O)O)CC3)nc(C(F)(F)F)n2)cc1 [Compound 28]
Cmax [1]: 75 ng/mL
EC50 [2]: 0.1 to 0.999 µM

SMILES: O=C(CCCC1CCN(c2cc(N3CCC[C@H]3C(=O)NCCc3ccc(C(F)(F)F)cc3)nc(C(F)(F)F)n2)CC1)NCCS(=O)(=O)O [Compound 58, (S)-2-(4-(1-(2-(trifluoromethyl)-6-(2-((4-(trifluoromethyl)phenethyl)-carbamoyl)-pyrrolidin-1-yl)-pyrimidin-4-yl)piperidin-4-yl)butanamido)ethanesulfonic acid]
Cmax [1]: 29 ng/mL
EC50 [2]: < 0.1 µM

SMILES: N#Cc1ccc(CCNC(=O)[C@@H]2CCCN2c2cc(N3CCC(CCNS(=O)(=O)CCNC(=O)[C@@H](N)CS(=O)(=O)O)CC3)nc(C(F)(F)F)n2)cc1 [Compound 125, (R)-2-amino-3-((2-(N-(2-(1-(6-((S)-2-((4-cyanophenethyl)carbamoyl)-pyrrolidin-1-yl)-2-(trifluoromethyl)-pyrimidin-4-yl)piperidin-4-yl)ethyl)sulfamoyl)ethyl)amino)-3-oxopropane-1-sulfonic acid]
Cmax [1]: 0.14 ng/mL
EC50 [2]: 0.1 to 0.999 µM

SMILES: N=C(N)N[C@@H](CCC(=O)NCCCC1CCN(c2cc(N3CCC[C@H]3C(=O)NCCc3ccc(C(F)(F)F)cc3)nc(C(F)(F)F)n2)CC1)C(=O)O [Compound 133, (S)-2-guanidino-5-oxo-5-((3-(1-(2-(trifluoromethyl)-6-((S)-2-((4-(trifluoromethyl)phenethyl)carbamoyl)pyrrolidin-1-yl)pyrimidin-4-yl)piperidin-4-yl)propyl)amino)pentanoic acid]
Cmax [1]: 4.1 ng/mL
EC50 [2]: < 0.1 µM

SMILES: N#Cc1ccc(CCNC(=O)[C@@H]2CCCN2c2cc(N3CCC(CCCNC(=O)NCC(=O)O)CC3)nc(C(F)(F)F)n2)cc1 [Compound 121, (S)-2-(3-(3-(1-(6-(2-((4-cyanophenethyl)carbamoyl)pyrrolidin-1-yl)-2-(trifluoromethyl)pyrimidin-4-yl)piperidin-4-yl)propyl)ureido)acetic acid]
Cmax [1]: 235 ng/mL
EC50 [2]: 0.1 to 0.999 µM

SMILES: N#Cc1ccc(CCNC(=O)[C@@H]2CCN2c2cc(N3CCC(CCCC(=O)NCCS(=O)(=O)O)CC3)nc(C(F)(F)F)n2)cc1 [Compound 249, (S)-2-(4-(1-(6-(2-((4-cyanophenethyl)carbamoyl)azetidin-1-yl)-2-(trifluoromethyl)pyrimidin-4-yl)piperidin-4-yl)butanamido)ethanesulfonic acid]
Cmax [1]: 3.4 ng/mL
EC50 [2]: < 0.1 µM
